Laboratory results from patent US11197857B2, “Combination therapy” (GlaxoSmithKline Intellectual Property Development Limited, priority 2016, dated 2021).
Like-named read-outs stand apart in the source and are kept apart here.

How the values were obtained:
[1] = system: 19 enzymes: Type I and Type II PRMTs and lysine methyltransferases (KMTs); assay: methyltransferase selectivity panel; assay type: biochemical; conditions: for selectivity over other methyltransferases: PRMT5 tool compounds
Excerpt: FIG. 31: Phylogenetic tree highlighting the methyltransferases tested in the selectivity panel. […] PRMT9 is shown for relationship purposes only within the family tree and was not evaluated in the panel. Figure adapted from Richon V M. et al.
PRMT9/FBXO11, which is the other Type II PRMT and the only PRMT to lack the THW loop, was not included due to the lack of a functional enzyme assay.

[2] = system: breast cancer cell lines (SKBR3, MDA-MB-468, MCF-7, ZR-75-1); assay: longer-term (10-12 day) growth/death assay; assay type: cell-based; conditions: SKBR3, MDA-MB-468 and MCF-7 cells, prolonged exposure (7-10 days)
[3] = system: 240 cancer cell lines; assay: 10-day 2D growth assay, 240 cell lines; assay type: cell-based
Procedure: FIG. 34: Compound B gIC50 values in cancer cell lines (n=240) from 10 day 2D growth assay. ALL-acute lymphoblastic leukemia, AML-acute myeloid leukemia, CML-chronic myeloid leukemia, DLBCL-diffuse large B-cell lymphoma, HL-Hodgkin lymphoma, HN-head and neck cancer, MM-multiple myeloma, NHL-non-Hodgkin lymphoma, NSCLC-non-small cell lung cancer, PEL-primary effusion lymphoma, SCLC-small cell lung cancer, TCL-T-cell lymphoma.
The tumor types with median gIC50<100 nM were acute myeloid leukemia (AML), chronic myelogenous leukemia (CML), Hodgkin's Lymphoma (HL), multiple myeloma (MM), breast, glioma, kidney, melanoma, and ovarian cancer.

[4] = target: PRMT5/MEP50 (Homo sapiens, UniProt O14744); assay: PRMT5/MEP50 radioactive assay (3H transfer from SAM to H4 peptide / protein substrate); assay type: biochemical; conditions: close analogs of Compound C
[5] = system: SDMA in Z138 cells; assay: SDMA ELISA; assay type: cell-based; conditions: Homo sapiens
[6] = system: MDA-MB-468 triple negative breast cancer xenograft model; assay: MDA-MB-468 xenograft efficacy and PK/PD; assay type: in vivo
Procedure: Next, the efficacy of PRMT5 inhibition was evaluated in in vivo models of breast cancer.

[7] = system: MDM4 splicing, SDMA, p53 and p21 in MCL lines; assay: MDM4 splicing (RT-PCR) and SDMA/p53/p21 western; assay type: cell-based
Procedure: To understand whether p53 activation is associated with MDM4 isoform switching, MDM4 alternative splicing was analyzed. […] The role of the p53 pathway in the biology of the response of p53 wild-type MCL cells to PRMT5 inhibition is being evaluated.

[8] = system: SDMA in a panel of 5 MCL lines; assay: SDMA inhibition in MCL panel; conditions: read-out: SDMA IC50
Excerpt: (B) SDMA IC50 values in a panel of MCL lines (EPIZYME data, day 4).

[9] = system: GBM cell lines; assay: 2D 6-day growth/death CTG assay; assay type: cell-based
[10] = system: Maver-1 MCL xenograft model; assay: Maver-1 xenograft efficacy and PD; assay type: in vivo; conditions: for TGI: day 18
Procedure: (§1) B. Quantified SDMA western data from tumors harvested at the end of the efficacy study (3 hours post last dose).

[11] = system: 4 breast cancer lines; assay: propidium iodide FACS cell cycle analysis; assay type: cell-based; conditions: after 7-10 days of treatment
[12] = system: panel of cancer cell lines; assay: cells; assay type: cell-based
Excerpt: DLBCL-diffuse large B-cell lymphoma, GBM-glioblastoma, MCL-mantle cell lymphoma, MM-multiple myeloma
The cell lines were selected to represent tumor types where PRMT5 activity has been reported to regulate key pathways and/or cell growth and survival (such as lymphoma and MCL, glioma, breast and lung cancer lines).

[13] = system: Z138 MCL cells; assay: 6-day growth/death assay; assay type: cell-based; conditions: Z138, 6-day
[14] = system: Z-138 MCL xenograft model; assay: Z138 xenograft 21-day efficacy and PD; assay type: in vivo; conditions: for TGI: 21-day
Procedure: as §1

[15] = system: gene expression in Z138 cells; assay: qPCR gene expression (11 genes); assay type: cell-based; conditions: Homo sapiens, Z-138, 96 h, day 4
[16] = system: MCL cell lines; assay: 6-day growth/death CTG assay in MCL cell lines; assay type: cell-based; conditions: for IC50: read-out: gIC50
[17] = system: patient-derived tumor models and cell lines (n=73); assay: soft agar 3D colony formation assay; assay type: cell-based; conditions: n=73 models
Excerpt: FIG. 35: Compound E relative IC50 values from 8-13 day colony formation assay performed in patient-derived and cell line tumor models.
Tumor types with the lowest median IC50 values were large cell lung cancer, breast, kidney and glioma.

Chain of PRMT5/MEP50 (O14744 whole entry): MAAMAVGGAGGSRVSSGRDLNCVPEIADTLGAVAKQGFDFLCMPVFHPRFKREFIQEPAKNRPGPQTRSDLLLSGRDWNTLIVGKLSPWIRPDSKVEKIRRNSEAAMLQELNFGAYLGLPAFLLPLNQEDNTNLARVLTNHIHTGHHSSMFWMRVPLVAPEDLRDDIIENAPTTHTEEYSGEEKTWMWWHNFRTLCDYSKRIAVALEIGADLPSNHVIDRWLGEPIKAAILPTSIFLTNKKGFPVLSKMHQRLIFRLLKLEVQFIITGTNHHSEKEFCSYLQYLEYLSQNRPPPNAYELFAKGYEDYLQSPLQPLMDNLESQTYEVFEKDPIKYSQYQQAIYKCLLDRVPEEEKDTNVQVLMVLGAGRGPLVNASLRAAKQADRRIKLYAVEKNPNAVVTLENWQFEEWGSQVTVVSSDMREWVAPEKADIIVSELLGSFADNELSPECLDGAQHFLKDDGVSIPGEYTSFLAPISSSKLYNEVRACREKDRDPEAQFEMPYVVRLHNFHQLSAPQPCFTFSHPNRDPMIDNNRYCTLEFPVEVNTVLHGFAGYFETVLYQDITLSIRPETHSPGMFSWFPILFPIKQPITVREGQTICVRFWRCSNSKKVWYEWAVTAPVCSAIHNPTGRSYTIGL
Chain of PRMT5/MEP50 (Q9BQA1 whole entry partner): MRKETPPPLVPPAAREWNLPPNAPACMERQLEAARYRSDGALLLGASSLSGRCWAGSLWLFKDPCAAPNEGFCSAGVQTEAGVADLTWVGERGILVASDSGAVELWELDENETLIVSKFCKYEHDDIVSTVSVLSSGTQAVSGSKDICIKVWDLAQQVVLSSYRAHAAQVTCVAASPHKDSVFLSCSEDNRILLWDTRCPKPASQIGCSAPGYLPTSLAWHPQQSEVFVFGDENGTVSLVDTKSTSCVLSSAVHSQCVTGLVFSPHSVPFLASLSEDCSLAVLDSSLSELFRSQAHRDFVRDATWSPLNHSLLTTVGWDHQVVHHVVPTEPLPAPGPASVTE

O=C(NC[C@H](O)CN1CCc2ccccc2C1)c1ccnc(NC2CCC2)c1 [Compound B]
selectivity over other methyltransferases [1]: Selectivity for PRMT5/MEP50 over the other methyltransferases
nature of response [2]: cytotoxic response
IC50 ([3]; AML, CML, HL, MM, breast, glioma, kidney, melanoma, ovarian cancer, read-out: median gIC50): < 100 nM
IC50 ([3]; majority of cell lines, read-out: gIC50): < 1000 nM
inhibitory potency compared with Compound C [4]: similar

CC(=O)N1CCC(Nc2cc(C(=O)NC[C@H](O)CN3CCc4ccccc4C3)ncn2)CC1 [Compound C]
EC50 ([5]; Z-138, 24 h, day 1): 7.3 nM
EC50 ([5]; Z-138, 72 h, day 3): 2.35 nM
IC50 ([5]; Z-138, 72 h, day 3): 4.79 nM
EC90 ([5]; Z-138, 72 h, day 3, read-out: SDMA EC90 (complete inhibition above)): 19 nM
SDMA inhibition ([6]; 100 mg/kg BID): greater than 90%
TGI ([6]; 100 mg/kg BID): 83%
SDMA inhibition ([6]; 100 mg/kg QD): less than 80%
efficacy ([6]; 100 mg/kg QD): not efficacious
MDM4 isoform switching ([7]; Z138 and JVM-2 cells (both p53 wild-type)): induced MDM4 isoform switching
concentrations at which SDMA levels were undetectable by Western blot ([7]; Z138 cells): above 8 nM
concentrations at which changes in MDM4 splicing and p53/p21 protein expression were apparent ([7]; Z138 cells): above 8 nM
p53 and p21 expression ([7]; Z138 cells, 200 nM Compound C): increased p53 and p21 expression to similar levels
IC50 [8]: 0.3 to 14 nM
IC50 ([9]; 144 h, GBM cell lines, 6-day, read-out: gIC50): 40 to 22000 nM
nature of response ([9]; with the exception of the SF539 cell line): largely cytostatic
IC50 ([1]; any of the 19 enzymes): > 40000 nM
potency for any other tested enzyme (FIG. 31) ([1]; phylogenetic tree symbol class): > 10^−5 M
reduction of the methyl mark (SDMA, tumors) ([10]; all dose groups): 80-95%
TGI ([10]; lowest dose group): 50%
TGI ([10]; top dose groups): > 90%
breast cancer lines with induction of cell death (increase in <2N) [11]: 3 out of 4
IC50 ([12]; majority of cell lines tested, read-out: gIC50): < 1000 nM
gIC50 ([12]; most sensitive lymphoma lines (MCL and DLBCL)): single digit nM range
nature of response [2]: cytotoxic response
IC50 ([13]; Homo sapiens, Z-138, 144 h, read-out: gIC50): 2.7 nM
gIC95 [13]: 82 nM
gIC100 [13]: 880 nM
reduction of the methyl mark (SDMA western, tumors) ([14]; all dose groups): greater than 70%
body weight loss ([14]; all groups in all efficacy studies presented): no body weight loss
TGI ([14]; lowest dose group, 25 mg/kg BID): 40%
TGI ([14]; top 100 mg/kg BID dose group): > 90%
reduction of the methyl mark (SDMA western, tumors) ([14]; top dose groups): > 98%
EC50 [15]: 22 to 332 nM
IC50 ([16]; 1 cell line of the MCL panel): > 1000 nM
IC50 ([16]; 2 lines of the MCL panel): ≤ 100 nM
IC50 ([16]; 3 cell lines of the MCL panel): < 10 nM
sensitivity ([16]; Mino, Jeko-1 (ibrutinib sensitive lines)): only moderately sensitive
gIC50 ([16]; Z-138, Maver-1 and JVM-2): low

O=C(NC[C@H](O)CN1CCc2ccccc2C1)c1cc(NC2COC2)ncn1 [Compound E]
selectivity over other methyltransferases [1]: Selectivity for PRMT5/MEP50 over the other methyltransferases
share of models with relative growth IC50 values below 1 μM [17]: 37%
inhibitory potency compared with Compound C [4]: similar

CC(=O)N1CCC(Nc2cc(C(=O)NC[C@H](O)CN3CCc4ccccc4C3)ccn2)CC1 [Compound F]
selectivity over other methyltransferases [1]: Selectivity for PRMT5/MEP50 over the other methyltransferases
inhibitory potency compared with Compound C [4]: similar

COc1ccc(C2=N[C@@H](c3ccc(Cl)cc3)[C@@H](c3ccc(Cl)cc3)N2C(=O)N2CCNC(=O)C2)c(OC(C)C)c1 [Nutlin-3, reference compound]
p53 and p21 expression ([7]; Z138 cells, 5 μM MDM2 inhibitor (Nutlin-3)): increased p53 and p21 expression to similar levels
